# Source: US11547667B2 (priority 2007, dated 2023)
# System: CD4 T cells from OT-II donor mice
# Test: In vivo CD4 T cell activation, CFSE dilution of transferred OT-II T cells
# Set-up: species or system C57BL6J mice
# Conditions: footpad injection, with CpG adjuvant, three days after immunization
# Procedure: Subsequently, immunization experiments were performed by injecting one footpad with free OVA or with nanoparticles composed of either PLA or PLGA that encapsulated an equivalent amount of OVA as a model antigen. All antigenic mixtures also contained CpG (a TLR9 agonist) as an adjuvant. The animals were injected, sacrificed three days after immunization, and OT-II T cell activation was assessed by flow cytometry in single-cell suspensions from different tissues.
# By contrast, activated T cells divide and in the process split the fluorescent dye evenly between the two daughter cells resulting in an incremental decrease in fluorescence intensity upon each successive division. Thus, the greater the left shift in CFSE, fluorescence the stronger T cells were activated.
substance,measurement,value
"free OVA: free chicken ovalbumin (OVA), mixed with CpG adjuvant","local T cell proliferation in distal lymphoid tissues (brachial lymph node, spleen)",only undivided cells or cells with very low CFSE content
